In US12044651B2, “Sensor device and methods” (SCENTIAN BIO LIMITED, priority 2016, dated 2024):

Assay: CNT-FET control covalently functionalized with empty nanodiscs (Example 3)
Conditions: empty nanodiscs 1:100 dilution; increasing amounts of ligand
Experimental: The dispersion was sonicated until a clear solution was obtained. The temperature was kept at 25° C. throughout the sonication process. The thiolpyridine solution was prepared by dissolving 10 mg of 2-Mercaptopyridine (99%, Sigma Aldrich) in 1 ml of methanol. The solution was spun coated on a polydimethylsiloxane (PDMS) surface at 2000 rpm for one minute. Before the spin coating process, the PDMS surface was cleaned by a 50 W Oxygen plasma for 1 minute to improve the wettability. The cleaned substrates were placed upside down on the PDMS surface for three minutes and washed in ethanol to remove the excess thiolpyridine molecules. Then the substrates were transferred into the CNT suspension and immersed into the suspension for 10 minutes. The samples were removed from the suspension and dipped into Ethanol for another 10 minutes to remove the thiolpyridine molecules in the SWNT network. The alignment markers were deposited by defining the markers by photolithography and thermal evaporation of 5 nm Chromium and 50 nm of Gold. The metal Lift off was done by acetone immersion for 15 minutes followed by an Isopropyl alcohol (IPA) wash and N2 blow dry. The result is a uniform thin film CNT network covering the entire substrate surface. Nanodiscs were prepared using a protocol modified from Bayburt et al. 2010 and 2003^55, 56. Nanodiscs were formed at an MSP:protein:lipid ratio of 1:0.2:150. […]

COC(=O)c1ccccc1O [methyl salicylate]
current response: no increase in current
